Results: PMC7464698, “Phenolic Composition and Skin-related Properties of the Aerial Parts Extract of Different Hemerocallis Cultivars” (Antioxidants, 2020)
In brackets after ≈: the same amount, converted by molar mass.

Legend:
[1] = target: T1, Collagenase from Clostridium histolyticum; assay: FALGPA hydrolysis, absorbance […] nm; format: biochemical, Hathewaya histolytica; settings: FALGPA 1 mM; Tricine 0.05 M pH 7.5, 0.4 M NaCl, 0.01 M CaCl2; 29 °C; 10 min preincubation; positive control
T1 construct: gene colG; commercial native enzyme preparation (Sigma-Aldrich); mixture of ColG and ColH not resolved

[2] = target: T2, Porcine pancreatic elastase (Sus scrofa, UniProt P00772); assay: N-Succinyl-Ala-Ala-Ala-p-nitroanilide hydrolysis, absorbance […] nm; format: biochemical; settings: read-out: IC50 [μg/mL] / Elastase Inhibition (converted)
T2 construct: gene CELA1; commercial native enzyme from pancreas (Sigma-Aldrich); mature enzyme
T2 sequence (P00772 27-266): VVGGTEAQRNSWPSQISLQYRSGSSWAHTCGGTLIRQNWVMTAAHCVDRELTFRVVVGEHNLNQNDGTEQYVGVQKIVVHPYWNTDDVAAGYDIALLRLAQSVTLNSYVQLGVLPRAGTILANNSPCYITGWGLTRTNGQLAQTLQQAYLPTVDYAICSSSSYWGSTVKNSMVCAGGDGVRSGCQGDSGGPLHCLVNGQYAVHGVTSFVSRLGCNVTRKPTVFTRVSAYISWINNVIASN

Structure (SMILES): O=C(O[C@@H]1Cc2c(O)cc(O)cc2O[C@@H]1c1cc(O)c(O)c(O)c1)c1cc(O)c(O)c(O)c1 [EGCG]
- IC50 [μg/mL] / Collagenase Inhibition [1]: 34.9 ± 0.4 µg/mL (≈ 76.1 µM)
- IC50 [2]: 136 µM
